# Paper PMC12163085, “Targeting transcription factors through an IMiD independent zinc finger domain” (EMBO Molecular Medicine, 2025)
# Tests used:
# [1] = test system: SNU387; experiment: cells; design: species or system SNU398 and SNU387 isogenic lines; CellTiter-Glo luminescence viability dose response in 384-well plates, nonlinear regression; conditions: Homo sapiens, SNU-387; 72 h cell viability; read-out: EC50 / SNU387Lo
# Method: (§1) Empty vector, SALL4A, and SALL4B expressing isogenic cell lines were generated by transducing the SALL4 negative hepatocellular carcinoma SNU-387 cells with empty vector, SALL4A, or SALL4B FUW-Luc-mCh-puro lentiviral constructs. Cells were plated in 50 μl of RPMI culture media in 384-well white flat-bottom plates (Corning) and incubated at 37 °C in a humidified atmosphere of 5% CO2 overnight. Cell numbers per well were 1500 for SNU-398, and 750 for SNU-387 and SNU-387 isogenic lines. After overnight incubation, varying concentrations of compounds 1–80 were added to cells with multichannel electronic pipettes (Rainin). Cells were then incubated for 72 h at 37 °C in a humidified atmosphere of 5% CO2 before 10 μl of CellTiter-Glo reagent was added to the wells with the MultiFlo Microplate Dispenser (BioTek). Cells were incubated at room temperature for a minimum of 10 min, after which luminescence readings were recorded by an Infinite M1000 Microplate Reader (Tecan). Each data point was performed in n = 3 independent cell cultures. IC50 of compounds were determined using nonlinear regression fitting from Prism (GraphPad). Cell-based screening was next employed to evaluate the growth inhibitory activity of the test compounds against SALL4 expressing malignant cells. SNU398, a liver cancer cell line with high endogenous levels of SALL4, and SNU387, a liver cancer cell line with undetectable levels of SALL4, were used for comparison. Cells were incubated with the test compound at 1 μM for 72 h, after which cell viability was assessed. […] Next, we carried out dose escalation studies on all SH compounds to deduce their EC50 values on SNU387 and SNU398. In order to interrogate the effects of compounds targeting SALL4, we created isogenic cells by overexpressing SALL4A (SNU387-TgSALL4A) or SALL4B (SNU387-TgSALL4B) in SNU387 cells (Tan et al, [2019]) (Fig. 2B, and Dataset EV4). The EC50 of SH2, SH6, and SH7 in SALL4 high SNU398 cells were 0.4 μM, 0.5 μM, and 0.3 μM, respectively. In contrast, the EC50 values of the same compounds were more than 10 μM on SALL4 low SNU387 cells.
# [2] = test system: SNU398; experiment: cells; design: species or system SNU387, SNU398 and SNU387 isogenic lines; CellTiter-Glo luminescence viability dose response in 384-well plates, nonlinear regression; conditions: Homo sapiens, SNU-398; 72 h cell viability; read-out: EC50 / SNU398Hi
# Method: as §1
SMILES,EC50 [1] [µM],EC50 [2] [µM]
COc1cc(Nc2ncccc2/C=C/C(=O)Nc2ccccc2N)cc(OC)c1OC [SH1],~30,~3
COc1cc(Nc2ncccc2/C=C/C(=O)Nc2cc(C)ccc2N)cc(OC)c1OC [SH3],> 30,~1.5
COc1cc(Nc2ncccc2/C=C/C(=O)Nc2cc(C)c(C)cc2N)cc(OC)c1OC [SH4],> 30,~2
COc1cc(Nc2ncccc2/C=C/C(=O)Nc2cc(F)ccc2N)cc(OC)c1OC [SH5],> 30,~2.5
COc1cc(Nc2ncccc2/C=C/C(=O)NO)cc(OC)c1OC [SH8],> 30,> 30
COc1ccc(Nc2ncccc2/C=C/C(=O)Nc2ccccc2N)cc1 [SH9],> 30,~25
COc1ccc(Nc2ncccc2/C=C/C(=O)Nc2cc(OC)ccc2N)cc1 [SH10],> 30,~2.5
COc1ccc(Nc2ncccc2/C=C/C(=O)Nc2cc(C)ccc2N)cc1 [SH11],~10,~3
COc1ccc(Nc2ncccc2/C=C/C(=O)Nc2cc(C)c(C)cc2N)cc1 [SH12],> 30,~25
COc1ccc(Nc2ncccc2/C=C/C(=O)Nc2cc(Cl)ccc2N)cc1 [SH14],~25,~7
COc1ccc(Nc2ncccc2/C=C/C(=O)Nc2cc(Cl)c(Cl)cc2N)cc1 [SH15],> 30,~20
COc1ccc(Nc2ncccc2/C=C/C(=O)NO)cc1 [SH16],> 30,> 30
Nc1ccccc1NC(=O)/C=C/c1cccnc1Nc1ccc(F)cc1 [SH17],> 30,~30
COc1ccc(N)c(NC(=O)/C=C/c2cccnc2Nc2ccc(F)cc2)c1 [SH18],> 30,~2
Cc1cc(N)c(NC(=O)/C=C/c2cccnc2Nc2ccc(F)cc2)cc1C [SH20],> 30,~12
Nc1ccc(F)cc1NC(=O)/C=C/c1cccnc1Nc1ccc(F)cc1 [SH21],> 30,~25
Nc1ccc(Cl)cc1NC(=O)/C=C/c1cccnc1Nc1ccc(F)cc1 [SH22],~30,~15
Nc1cc(Cl)c(Cl)cc1NC(=O)/C=C/c1cccnc1Nc1ccc(F)cc1 [SH23],~25,~12
Nc1ccccc1NC(=O)/C=C/c1cccnc1Nc1ccc(C(F)(F)F)cc1 [SH25],> 30,30
COc1ccc(N)c(NC(=O)/C=C/c2cccnc2Nc2ccc(C(F)(F)F)cc2)c1 [SH26],~12,~6
Cc1ccc(N)c(NC(=O)/C=C/c2cccnc2Nc2ccc(C(F)(F)F)cc2)c1 [SH27],> 30,~12
Cc1cc(N)c(NC(=O)/C=C/c2cccnc2Nc2ccc(C(F)(F)F)cc2)cc1C [SH28],~25,~12
Nc1ccc(F)cc1NC(=O)/C=C/c1cccnc1Nc1ccc(C(F)(F)F)cc1 [SH29],> 30,~12

SMILES,EC50 [1] [µM],EC50 [2] [µM]
Nc1ccc(Cl)cc1NC(=O)/C=C/c1cccnc1Nc1ccc(C(F)(F)F)cc1 [SH30],~30,~12
Nc1cc(Cl)c(Cl)cc1NC(=O)/C=C/c1cccnc1Nc1ccc(C(F)(F)F)cc1 [SH31],~14,~10
O=C(/C=C/c1cccnc1Nc1ccc(C(F)(F)F)cc1)NO [SH32],> 30,~8
Nc1ccccc1NC(=O)/C=C/c1cccnc1Nc1ccc(Cl)cc1 [SH33],> 30,~20
COc1ccc(N)c(NC(=O)/C=C/c2cccnc2Nc2ccc(Cl)cc2)c1 [SH34],~5,~3
Cc1ccc(N)c(NC(=O)/C=C/c2cccnc2Nc2ccc(Cl)cc2)c1 [SH35],~20,~9
Cc1cc(N)c(NC(=O)/C=C/c2cccnc2Nc2ccc(Cl)cc2)cc1C [SH36],> 30,~17
Nc1ccc(F)cc1NC(=O)/C=C/c1cccnc1Nc1ccc(Cl)cc1 [SH37],> 30,~17
Nc1ccc(Cl)cc1NC(=O)/C=C/c1cccnc1Nc1ccc(Cl)cc1 [SH38],> 30,~15
Nc1cc(Cl)c(Cl)cc1NC(=O)/C=C/c1cccnc1Nc1ccc(Cl)cc1 [SH39],~25,~16
O=C(/C=C/c1cccnc1Nc1ccc(Cl)cc1)NO [SH40],> 30,~15
COc1cc(Nc2ncccc2C(=O)Nc2ccccc2N)cc(OC)c1OC [SH41],> 30,> 30
COc1cc(Nc2ncccc2C(=O)Nc2cc(C)ccc2N)cc(OC)c1OC [SH43],~30,~12
COc1cc(Nc2ncccc2C(=O)Nc2cc(C)c(C)cc2N)cc(OC)c1OC [SH44],> 30,> 30
COc1cc(Nc2ncccc2C(=O)Nc2cc(F)ccc2N)cc(OC)c1OC [SH45],> 30,> 30
COc1cc(Nc2ncccc2C(=O)Nc2cc(Cl)ccc2N)cc(OC)c1OC [SH46],> 30,> 30
COc1cc(Nc2ncccc2C(=O)Nc2cc(Cl)c(Cl)cc2N)cc(OC)c1OC [SH47],> 30,~18
COc1cc(Nc2ncccc2C(=O)NO)cc(OC)c1OC [SH48],> 30,> 30
COc1ccc(Nc2ncccc2C(=O)Nc2ccccc2N)cc1 [SH49],> 30,> 30
COc1ccc(Nc2ncccc2C(=O)Nc2cc(OC)ccc2N)cc1 [SH50],> 30,> 30
COc1ccc(Nc2ncccc2C(=O)Nc2cc(C)ccc2N)cc1 [SH51],> 30,> 30
COc1ccc(Nc2ncccc2C(=O)Nc2cc(C)c(C)cc2N)cc1 [SH52],> 30,> 30
COc1ccc(Nc2ncccc2C(=O)Nc2cc(F)ccc2N)cc1 [SH53],> 30,> 30

SMILES,EC50 [1] [µM],EC50 [2] [µM]
COc1ccc(Nc2ncccc2C(=O)Nc2cc(Cl)ccc2N)cc1 [SH54],> 30,> 30
COc1ccc(Nc2ncccc2C(=O)Nc2cc(Cl)c(Cl)cc2N)cc1 [SH55],> 30,~25
COc1ccc(Nc2ncccc2C(=O)NO)cc1 [SH56],> 30,> 30
Nc1ccccc1NC(=O)c1cccnc1Nc1ccc(F)cc1 [SH57],> 30,> 30
COc1ccc(N)c(NC(=O)c2cccnc2Nc2ccc(F)cc2)c1 [SH58],> 30,> 30
Cc1ccc(N)c(NC(=O)c2cccnc2Nc2ccc(F)cc2)c1 [SH59],> 30,> 30
Cc1cc(N)c(NC(=O)c2cccnc2Nc2ccc(F)cc2)cc1C [SH60],> 30,> 30
Nc1ccc(Cl)cc1NC(=O)c1cccnc1Nc1ccc(F)cc1 [SH62],> 30,~25
Nc1cc(Cl)c(Cl)cc1NC(=O)c1cccnc1Nc1ccc(F)cc1 [SH63],> 30,~20
O=C(NO)c1cccnc1Nc1ccc(F)cc1 [SH64],> 30,> 30
Nc1ccccc1NC(=O)c1cccnc1Nc1ccc(C(F)(F)F)cc1 [SH65],> 30,~25
COc1ccc(N)c(NC(=O)c2cccnc2Nc2ccc(C(F)(F)F)cc2)c1 [SH66],> 30,~25
Cc1ccc(N)c(NC(=O)c2cccnc2Nc2ccc(C(F)(F)F)cc2)c1 [SH67],> 30,> 30
Cc1cc(N)c(NC(=O)c2cccnc2Nc2ccc(C(F)(F)F)cc2)cc1C [SH68],> 30,> 30
Nc1ccc(F)cc1NC(=O)c1cccnc1Nc1ccc(C(F)(F)F)cc1 [SH69],> 30,~16
Nc1ccc(Cl)cc1NC(=O)c1cccnc1Nc1ccc(C(F)(F)F)cc1 [SH70],> 30,~25
Nc1cc(Cl)c(Cl)cc1NC(=O)c1cccnc1Nc1ccc(C(F)(F)F)cc1 [SH71],~25,~16
O=C(NO)c1cccnc1Nc1ccc(C(F)(F)F)cc1 [SH72],> 30,~25
Nc1ccccc1NC(=O)c1cccnc1Nc1ccc(Cl)cc1 [SH73],> 30,~30
COc1ccc(N)c(NC(=O)c2cccnc2Nc2ccc(Cl)cc2)c1 [SH74],> 30,~20
Cc1ccc(N)c(NC(=O)c2cccnc2Nc2ccc(Cl)cc2)c1 [SH75],> 30,> 30
